Measurements: ChEMBL document CHEMBL1201862, “PubChem BioAssay data set” (2004)
Calls of active or inactive are those of the source.

Assays:
[1] = target: Voltage-gated inwardly rectifying potassium channel KCNH2 (Homo sapiens, UniProt Q12809); settings: Potency;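 also: confirmatory quantitative high-throughput screen measuring inhibition of hERG channel activity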
[2] = C. albicans growth with fluconazole, confirmation, fluorescence, retest (AID 2467); assay type: functional, cell-based
[3] = system: Vero; experiment: cells; assay type: functional, cell-based; settings: Chlorocebus sabaeus
[4] = NIH-3T3 fibroblast cytotoxicity, dose response, cytotoxicity control, cell-based, fluorescence, Alamar Blue, secondary assay (AID 2327); assay type: functional;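 also: NIH-3T3 mouse fibroblasts cultured with fluconazole at 8 µg/mL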
[5] = system: Vero; experiment: cells; assay type: functional; settings: Chlorocebus sabaeus
[6] = target: T1, Short transient receptor potential channel 4 (Mus musculus, UniProt Q9QUQ5); experiment: mouse TRPC4 channel activators, dose response, cell-based, HEK293 TRPC4/mu-opioid, Fluo-4 calcium (AID 434937); assay type: functional
T1 sequence (Q9QUQ5 whole entry): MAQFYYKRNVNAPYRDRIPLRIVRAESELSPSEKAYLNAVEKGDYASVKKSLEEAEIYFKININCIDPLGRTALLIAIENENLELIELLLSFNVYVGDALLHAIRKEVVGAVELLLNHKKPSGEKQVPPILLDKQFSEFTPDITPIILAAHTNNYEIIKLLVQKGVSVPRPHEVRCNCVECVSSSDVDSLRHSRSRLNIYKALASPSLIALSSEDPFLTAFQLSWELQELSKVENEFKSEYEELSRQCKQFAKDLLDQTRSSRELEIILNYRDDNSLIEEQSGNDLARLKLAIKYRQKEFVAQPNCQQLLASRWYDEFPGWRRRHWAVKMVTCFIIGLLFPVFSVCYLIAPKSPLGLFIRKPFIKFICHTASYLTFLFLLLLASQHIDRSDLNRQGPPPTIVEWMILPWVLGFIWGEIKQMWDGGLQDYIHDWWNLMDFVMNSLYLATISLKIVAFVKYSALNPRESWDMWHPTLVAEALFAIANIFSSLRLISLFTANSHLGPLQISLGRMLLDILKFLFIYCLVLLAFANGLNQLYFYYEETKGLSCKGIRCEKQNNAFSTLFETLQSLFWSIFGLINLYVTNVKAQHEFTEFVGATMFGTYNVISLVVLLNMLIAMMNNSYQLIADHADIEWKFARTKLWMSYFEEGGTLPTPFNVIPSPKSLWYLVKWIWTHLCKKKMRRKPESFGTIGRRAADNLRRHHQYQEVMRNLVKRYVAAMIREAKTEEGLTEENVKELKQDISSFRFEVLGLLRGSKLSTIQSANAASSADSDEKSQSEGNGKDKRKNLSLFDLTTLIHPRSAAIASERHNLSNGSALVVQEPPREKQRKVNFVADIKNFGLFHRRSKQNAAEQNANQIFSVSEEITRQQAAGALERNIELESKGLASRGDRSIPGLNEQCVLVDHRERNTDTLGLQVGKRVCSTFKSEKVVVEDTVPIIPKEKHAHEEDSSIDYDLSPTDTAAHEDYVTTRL

[7] = cytotoxicity in MIN6 insulinoma cells, dose response, cytotoxicity control, cell-based, mouse insulinoma (AID 2122); assay type: functional;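 also: confirmatory high-throughput counterscreen run to flag cytotoxic compounds; mouse MIN-6 beta cells carrying an insulin promoter eGFP reporter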
[8] = insulin promoter down-regulators in MIN6 cells, imaging, high-content screening, mouse beta cells (AID 1628); assay type: functional
[9] = target: T2, Cytochrome P450 1A2 (Homo sapiens, UniProt P05177);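 also: PubChem cytochrome P450 panel assay, CYP1A2 panel member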
T2 sequence (P05177 whole entry): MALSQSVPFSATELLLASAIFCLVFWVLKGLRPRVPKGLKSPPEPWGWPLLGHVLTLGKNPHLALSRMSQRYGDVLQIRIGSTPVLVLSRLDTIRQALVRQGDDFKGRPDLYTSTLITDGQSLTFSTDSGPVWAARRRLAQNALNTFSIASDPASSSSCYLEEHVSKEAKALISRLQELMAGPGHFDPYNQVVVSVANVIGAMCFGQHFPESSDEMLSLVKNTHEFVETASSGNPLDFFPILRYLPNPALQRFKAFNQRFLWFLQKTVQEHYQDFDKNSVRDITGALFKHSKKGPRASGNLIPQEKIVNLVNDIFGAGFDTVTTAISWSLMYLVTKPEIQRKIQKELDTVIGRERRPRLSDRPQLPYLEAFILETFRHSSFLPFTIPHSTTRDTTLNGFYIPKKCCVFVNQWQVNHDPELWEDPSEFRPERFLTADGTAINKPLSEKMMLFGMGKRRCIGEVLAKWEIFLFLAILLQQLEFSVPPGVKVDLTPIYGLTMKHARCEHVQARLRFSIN

[10] = target: T2, Cytochrome P450 1A2; remark: listed apart in the source
[11] = target: Cytochrome P450 2C9 (Homo sapiens, UniProt P11712)
[12] = target: Cytochrome P450 3A4 (Homo sapiens, UniProt P08684);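 also: CYP3A4 tested as one member of a cytochrome P450 panel screen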
[13] = target: CAAX prenyl protease 2 (Homo sapiens, UniProt Q9Y256); experiment: human Rce1 protease inhibitors, dose response, biochemical, yeast membranes, quenched-peptide fluorescence, cherry-pick (AID 588849)
[14] = target: T3, CAAX prenyl protease 2 (Saccharomyces cerevisiae S288c, UniProt Q03530); assay type: biochemical
T3 sequence (Q03530 whole entry): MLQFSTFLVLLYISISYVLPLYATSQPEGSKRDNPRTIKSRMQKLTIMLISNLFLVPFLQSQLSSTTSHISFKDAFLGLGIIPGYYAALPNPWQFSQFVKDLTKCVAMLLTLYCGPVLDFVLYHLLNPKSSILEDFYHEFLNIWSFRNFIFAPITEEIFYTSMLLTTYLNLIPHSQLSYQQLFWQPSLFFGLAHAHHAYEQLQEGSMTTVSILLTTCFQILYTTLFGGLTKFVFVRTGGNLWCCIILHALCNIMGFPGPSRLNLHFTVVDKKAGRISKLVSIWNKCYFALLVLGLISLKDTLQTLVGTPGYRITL

[15] = Luminescence Cell-Based Dose Retest to Confirm Inhibitors of Cancer Stem Cells. [Related pubchem assays (depositor defined):AID2717, AID2721]; assay type: functional; settings: Homo sapiens
[16] = mammalian cell cytotoxicity, dose response, cytotoxicity control, plate reader, cherry-pick samples (AID 504397); assay type: functional, cell-based
[17] = cytotoxicity in HMLE control line with eGFP shRNA, dose response, counter-screen for HMLE_sh_ECad selective toxicity project, cell-based, HMLE_sh_eGFP, luminescence (AID 463074); assay type: functional, Homo sapiens;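 also: HMLE human mammary epithelial cells expressing control shRNA against eGFP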
[18] = target: Mu-type opioid receptor (Homo sapiens, UniProt P35372); experiment: (§1) Counterscreen for agonists of heterodimerization of the mu 1 (OPRM1) and delta 1 (OPRD1) opioid receptors: Luminescence-based cell-based high throughput dose response assay to identify agonists of OPRM1 homodimerization.; assay type: functional
[19] = target: 5-hydroxytryptamine receptor 5A (Homo sapiens, UniProt P47898); experiment: Counterscreen for agonists of OPRM1-OPRD1 heterodimerization: luminescence-based cell-based high throughput dose response assay to identify agonists of 5-hydroxytryptamine (serotonin) 5A receptor (HTR5A). [Related pubchem assays (depositor defined):AID504326, AID504355, AID504692, AID504904, AID504905]; assay type: functional
[20] = target: Delta-type opioid receptor (Homo sapiens, UniProt P41143); experiment: as §1, with “of OPRD1” for “of OPRM1”, “homodimerization. [Related pubchem assays (depositor defined):AID504326, AID504355, AID504692, AID504904, AID504905]” for “homodimerization.”; assay type: functional
[21] = cytotoxicity in HEK-293T NF-kB-Luc cells, dose response, cytotoxicity control for B/T-cell NF-kB inhibitor project, cell-based, uHTS hits (AID 489019); assay type: functional;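 also: IC50 reflects cytotoxicity as loss of cell viability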
[22] = cytotoxicity toward NIH3T3 fibroblasts, dose response, counter-screen, cell-based, ATP luminescence, mouse fibroblasts (AID 2010); assay type: functional;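 also: cells exposed to compound for about 90 hours before reading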
[23] = system: INS1; experiment: beta cell apoptosis inhibitors, cytokine rescue, dose response, luminescence, retest (AID 449756); assay type: functional, cell-based; settings: Rattus norvegicus;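 also: cell death triggered by IL-1 beta plus TNF-alpha plus IFN-gamma mixture; protective hits raise ATP signal compared with cytokine alone wells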
[24] = system: Jurkat; experiment: antigen receptor-induced NF-kB inhibitors, dose response, Jurkat, luciferase reporter, luminescence, B- and T-cell (AID 489004); assay type: functional, cell-based; settings: Homo sapiens;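 also: NF-kB luciferase reporter Jurkat cells stimulated with PMA plus ionomycin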
[25] = inhibitors of intracellular T. cruzi replication, confirmation, NIH3T3 host cells, beta-gal luminescence (AID 2044); assay type: functional, cell-based;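 also: intracellular parasites grown in NIH/3T3 mouse fibroblasts as host cells; luminescent beta-galactosidase reporter signal from transgenic T. cruzi replicating inside host cells; inhibitors lower the luminescence signal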
[26] = target: Voltage-dependent T-type calcium channel subunit alpha-1H (Homo sapiens, UniProt O95180); experiment: Cav3.2 T-type channel blockers, cell-based, SynthLib3 library, HEK293 Cav3.2, fluorescence (AID 493041); assay type: functional
[27] = inhibitors of Trypanosoma cruzi host-cell infection, confirmation, beta-gal luminescence, NIH3T3 host cells (AID 2630); assay type: functional, cell-based; settings: Mus musculus
[28] = system: A-375; experiment: A375 melanoma cell viability reduction, dose response, counter-screen for MITF modulator project, cherry-pick samples, set 2 (AID 540335); assay type: functional, cell-based; settings: Homo sapiens
[29] = target: T4, Microphthalmia-associated transcription factor (Homo sapiens, UniProt O75030); experiment: TRPM1 promoter luciferase signal decrease, dose response, MITF inhibitor project, cell-based, SK-MEL-5, cherry-picked, set 3 (AID 493073); assay type: functional
T4 sequence (O75030 whole entry): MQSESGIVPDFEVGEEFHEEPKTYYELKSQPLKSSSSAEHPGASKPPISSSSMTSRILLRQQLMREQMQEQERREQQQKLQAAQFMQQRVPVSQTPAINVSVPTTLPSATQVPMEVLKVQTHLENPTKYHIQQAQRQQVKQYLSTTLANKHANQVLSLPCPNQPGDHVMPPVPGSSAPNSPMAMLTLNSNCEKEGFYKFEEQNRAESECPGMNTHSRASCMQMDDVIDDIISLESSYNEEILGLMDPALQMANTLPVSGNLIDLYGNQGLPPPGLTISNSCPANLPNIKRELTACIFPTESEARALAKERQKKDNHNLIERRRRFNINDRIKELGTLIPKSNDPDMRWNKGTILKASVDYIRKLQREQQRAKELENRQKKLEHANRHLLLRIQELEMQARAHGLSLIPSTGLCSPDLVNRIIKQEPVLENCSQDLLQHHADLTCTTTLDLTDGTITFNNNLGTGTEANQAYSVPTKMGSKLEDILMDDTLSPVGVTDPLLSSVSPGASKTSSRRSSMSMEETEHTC

[30] = system: A-375; experiment: MITF: Counter assay: A375 proliferation Measured in Cell-Based System Using Plate Reader - 2084-03_Inhibitor_Dose_DryPowder_Activity. [Related pubchem assays (depositor defined):AID488944]; assay type: functional; settings: Homo sapiens

Chain of Cytochrome P450 3A4 (P08684 whole entry): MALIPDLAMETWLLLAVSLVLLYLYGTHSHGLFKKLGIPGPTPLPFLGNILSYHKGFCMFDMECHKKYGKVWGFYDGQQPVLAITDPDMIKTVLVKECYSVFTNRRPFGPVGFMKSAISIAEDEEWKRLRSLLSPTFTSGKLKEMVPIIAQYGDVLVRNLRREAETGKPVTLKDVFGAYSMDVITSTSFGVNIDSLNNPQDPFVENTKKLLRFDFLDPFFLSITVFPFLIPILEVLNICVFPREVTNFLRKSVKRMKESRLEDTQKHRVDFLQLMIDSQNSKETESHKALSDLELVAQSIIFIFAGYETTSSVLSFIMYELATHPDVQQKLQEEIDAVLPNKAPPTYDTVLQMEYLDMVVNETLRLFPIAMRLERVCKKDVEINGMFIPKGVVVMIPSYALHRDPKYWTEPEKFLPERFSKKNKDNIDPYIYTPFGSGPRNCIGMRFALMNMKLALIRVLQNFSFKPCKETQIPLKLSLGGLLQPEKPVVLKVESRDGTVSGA
Chain of 5-hydroxytryptamine receptor 5A (P47898 whole entry): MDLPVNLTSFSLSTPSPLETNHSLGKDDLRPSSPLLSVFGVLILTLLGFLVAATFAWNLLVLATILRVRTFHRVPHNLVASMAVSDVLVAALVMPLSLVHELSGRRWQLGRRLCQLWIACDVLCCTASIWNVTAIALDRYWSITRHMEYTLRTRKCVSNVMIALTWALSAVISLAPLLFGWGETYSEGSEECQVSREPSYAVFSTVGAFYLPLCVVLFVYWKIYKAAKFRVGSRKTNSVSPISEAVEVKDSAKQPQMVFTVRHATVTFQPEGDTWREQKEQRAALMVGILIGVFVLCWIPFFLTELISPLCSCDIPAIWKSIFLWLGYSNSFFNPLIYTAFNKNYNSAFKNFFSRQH
Chain of Voltage-dependent T-type calcium channel subunit alpha-1H (O95180 whole entry): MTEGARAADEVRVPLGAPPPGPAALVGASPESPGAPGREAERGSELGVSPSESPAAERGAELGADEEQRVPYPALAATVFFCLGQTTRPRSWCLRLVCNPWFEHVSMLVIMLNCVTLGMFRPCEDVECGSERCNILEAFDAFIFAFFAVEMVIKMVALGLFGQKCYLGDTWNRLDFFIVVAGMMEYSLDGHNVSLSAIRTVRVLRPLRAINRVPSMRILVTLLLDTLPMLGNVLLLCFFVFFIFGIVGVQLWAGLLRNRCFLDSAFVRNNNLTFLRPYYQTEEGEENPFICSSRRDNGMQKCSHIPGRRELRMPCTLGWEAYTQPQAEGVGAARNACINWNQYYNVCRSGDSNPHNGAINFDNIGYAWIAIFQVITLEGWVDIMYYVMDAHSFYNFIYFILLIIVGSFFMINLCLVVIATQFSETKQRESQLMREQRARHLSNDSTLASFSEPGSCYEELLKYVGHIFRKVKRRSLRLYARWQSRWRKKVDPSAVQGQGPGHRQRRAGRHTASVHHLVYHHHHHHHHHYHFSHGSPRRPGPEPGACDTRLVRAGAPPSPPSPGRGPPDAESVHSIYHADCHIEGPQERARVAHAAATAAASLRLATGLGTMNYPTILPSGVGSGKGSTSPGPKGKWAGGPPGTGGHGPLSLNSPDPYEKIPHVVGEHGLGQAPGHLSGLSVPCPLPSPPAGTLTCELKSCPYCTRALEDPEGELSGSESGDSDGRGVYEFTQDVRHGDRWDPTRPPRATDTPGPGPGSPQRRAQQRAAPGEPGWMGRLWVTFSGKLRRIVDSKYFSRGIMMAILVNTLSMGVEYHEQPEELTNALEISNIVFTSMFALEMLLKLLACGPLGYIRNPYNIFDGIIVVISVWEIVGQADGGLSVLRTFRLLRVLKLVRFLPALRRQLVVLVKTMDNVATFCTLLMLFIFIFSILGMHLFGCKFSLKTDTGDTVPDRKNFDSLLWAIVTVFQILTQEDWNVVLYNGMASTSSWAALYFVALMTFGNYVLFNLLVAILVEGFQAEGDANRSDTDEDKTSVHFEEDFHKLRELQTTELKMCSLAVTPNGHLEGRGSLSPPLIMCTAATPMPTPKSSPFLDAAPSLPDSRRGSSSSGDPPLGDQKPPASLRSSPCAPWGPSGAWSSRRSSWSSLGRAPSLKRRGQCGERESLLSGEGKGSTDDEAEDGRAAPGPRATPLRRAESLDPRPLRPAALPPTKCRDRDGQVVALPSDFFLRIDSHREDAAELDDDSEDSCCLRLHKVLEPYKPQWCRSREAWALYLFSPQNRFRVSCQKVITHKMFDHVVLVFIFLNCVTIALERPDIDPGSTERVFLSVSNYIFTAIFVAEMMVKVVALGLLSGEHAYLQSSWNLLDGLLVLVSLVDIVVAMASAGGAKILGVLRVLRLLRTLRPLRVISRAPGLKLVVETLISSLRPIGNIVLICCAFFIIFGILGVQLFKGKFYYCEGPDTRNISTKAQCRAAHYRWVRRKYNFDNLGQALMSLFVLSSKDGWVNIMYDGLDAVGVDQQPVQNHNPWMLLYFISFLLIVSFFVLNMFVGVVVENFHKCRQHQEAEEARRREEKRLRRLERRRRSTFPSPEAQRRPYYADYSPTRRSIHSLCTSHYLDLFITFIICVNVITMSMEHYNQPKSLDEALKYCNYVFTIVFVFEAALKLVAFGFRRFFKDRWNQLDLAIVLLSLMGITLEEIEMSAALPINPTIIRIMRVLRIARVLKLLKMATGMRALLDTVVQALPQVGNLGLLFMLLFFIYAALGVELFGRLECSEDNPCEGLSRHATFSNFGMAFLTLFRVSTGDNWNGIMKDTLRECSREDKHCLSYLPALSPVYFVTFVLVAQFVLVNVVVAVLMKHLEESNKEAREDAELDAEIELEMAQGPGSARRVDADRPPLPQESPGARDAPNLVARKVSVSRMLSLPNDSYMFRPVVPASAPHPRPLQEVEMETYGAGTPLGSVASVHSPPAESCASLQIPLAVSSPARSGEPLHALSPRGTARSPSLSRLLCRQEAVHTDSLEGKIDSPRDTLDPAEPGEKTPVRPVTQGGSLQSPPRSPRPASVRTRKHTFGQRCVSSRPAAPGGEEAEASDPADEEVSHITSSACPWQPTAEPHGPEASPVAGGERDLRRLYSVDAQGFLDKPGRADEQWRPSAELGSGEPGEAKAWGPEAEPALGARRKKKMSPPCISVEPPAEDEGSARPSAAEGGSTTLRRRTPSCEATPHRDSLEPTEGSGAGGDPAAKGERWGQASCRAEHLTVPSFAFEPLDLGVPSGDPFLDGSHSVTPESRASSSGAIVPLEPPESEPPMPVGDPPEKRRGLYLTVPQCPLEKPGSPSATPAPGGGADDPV
Chain of Delta-type opioid receptor (P41143 whole entry): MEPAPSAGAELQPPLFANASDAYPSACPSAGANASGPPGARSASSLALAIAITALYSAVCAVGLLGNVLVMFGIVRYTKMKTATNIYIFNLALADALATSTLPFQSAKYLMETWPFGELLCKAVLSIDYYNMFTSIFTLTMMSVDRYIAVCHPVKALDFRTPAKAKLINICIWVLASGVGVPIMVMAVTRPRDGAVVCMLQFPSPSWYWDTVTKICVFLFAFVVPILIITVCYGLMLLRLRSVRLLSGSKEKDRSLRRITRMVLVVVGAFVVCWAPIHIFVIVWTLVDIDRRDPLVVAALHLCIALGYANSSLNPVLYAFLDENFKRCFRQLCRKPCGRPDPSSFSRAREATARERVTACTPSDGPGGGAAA
Chain of CAAX prenyl protease 2 (Homo sapiens, UniProt Q9Y256) (Q9Y256 whole entry): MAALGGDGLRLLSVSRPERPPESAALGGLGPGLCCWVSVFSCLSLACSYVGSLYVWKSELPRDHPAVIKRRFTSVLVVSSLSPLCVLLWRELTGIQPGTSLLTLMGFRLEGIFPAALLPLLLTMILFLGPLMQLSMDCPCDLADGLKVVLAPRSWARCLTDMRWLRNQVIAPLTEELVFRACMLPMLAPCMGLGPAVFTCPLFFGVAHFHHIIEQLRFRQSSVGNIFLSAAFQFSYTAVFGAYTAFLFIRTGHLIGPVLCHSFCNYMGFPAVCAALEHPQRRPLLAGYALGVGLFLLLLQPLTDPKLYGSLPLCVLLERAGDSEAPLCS
Chain of Voltage-gated inwardly rectifying potassium channel KCNH2 (Q12809 whole entry): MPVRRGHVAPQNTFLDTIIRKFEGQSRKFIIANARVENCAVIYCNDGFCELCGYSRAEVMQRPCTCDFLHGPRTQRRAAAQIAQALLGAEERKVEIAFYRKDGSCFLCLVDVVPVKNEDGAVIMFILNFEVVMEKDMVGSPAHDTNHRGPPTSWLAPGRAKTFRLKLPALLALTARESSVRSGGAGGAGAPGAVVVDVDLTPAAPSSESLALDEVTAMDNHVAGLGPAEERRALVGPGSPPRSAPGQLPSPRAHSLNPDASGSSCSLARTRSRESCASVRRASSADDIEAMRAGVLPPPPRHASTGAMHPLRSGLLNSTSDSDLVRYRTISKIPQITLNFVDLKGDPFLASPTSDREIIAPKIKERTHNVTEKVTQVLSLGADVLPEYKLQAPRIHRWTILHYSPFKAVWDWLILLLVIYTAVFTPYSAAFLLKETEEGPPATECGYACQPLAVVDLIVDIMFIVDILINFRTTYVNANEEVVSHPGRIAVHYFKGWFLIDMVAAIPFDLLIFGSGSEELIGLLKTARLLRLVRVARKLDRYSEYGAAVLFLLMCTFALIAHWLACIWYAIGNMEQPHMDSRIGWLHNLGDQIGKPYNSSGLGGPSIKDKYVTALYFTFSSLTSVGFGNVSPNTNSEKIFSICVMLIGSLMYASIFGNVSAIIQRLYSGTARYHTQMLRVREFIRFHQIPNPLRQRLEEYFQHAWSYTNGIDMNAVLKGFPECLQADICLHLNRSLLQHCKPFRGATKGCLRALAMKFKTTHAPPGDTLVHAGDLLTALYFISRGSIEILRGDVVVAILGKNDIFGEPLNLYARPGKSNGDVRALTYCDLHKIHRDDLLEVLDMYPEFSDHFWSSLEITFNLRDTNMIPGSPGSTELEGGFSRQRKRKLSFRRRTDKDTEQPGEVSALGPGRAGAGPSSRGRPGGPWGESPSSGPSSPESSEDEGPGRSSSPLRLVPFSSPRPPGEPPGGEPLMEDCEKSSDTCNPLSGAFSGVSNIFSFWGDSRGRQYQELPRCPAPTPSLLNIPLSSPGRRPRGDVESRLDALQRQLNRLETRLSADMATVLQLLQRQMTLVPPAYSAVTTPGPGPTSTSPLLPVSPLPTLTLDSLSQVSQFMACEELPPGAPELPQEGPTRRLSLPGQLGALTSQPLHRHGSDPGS

N[C@@H](Cc1ccc(F)cc1)C(=O)O
AC50 [1]: 35.5 µM (inconclusive)

Cc1cccc(C(=O)NNC(=S)NC(=O)c2cccs2)c1
EC50 [2]: 2.47 µM (active) | IC50 [3]: 23.5 µM (active) | EC50 [4]: > 160 µM (inactive) | CC50 [5]: > 25 µM (active) | EC50 [6]: 5.96 µM (active)

COc1ccc2nc(Nc3nc(C)c(CCC(C)C)c(O)n3)nc(C)c2c1
IC50 [7]: 5.61 µM (active) | IC50 [8]: 1.95 µM (active)

COc1ccccc1OC[C@H](O)CN1CCN(CC(=O)Nc2c(C)cccc2C)CC1
AC50 [9]: inactive

CC(NC(=O)c1ccc(N2CCCC2=O)cc1)c1ccccc1 (stereo unspecified)
AC50 [10]: 39.8 µM (inconclusive) | AC50 [11]: 15.8 µM (inconclusive) | AC50 [12]: inconclusive

Cc1ccc(OCCN2C(=O)C(=O)c3cc(C)ccc32)cc1
AC50 [13]: 12.8 µM (active) | AC50 [14]: 1.6 µM (active) | AC50 [15]: 24.2 µM (active) | AC50 [16]: 4.64 µM (active) | AC50 [17]: 145 µM (active)

CN1C(CC(=O)Nc2ccc(Br)cc2)c2ccccc2CC1(C)C (stereo unspecified)
EC50 [18]: > 92.5 µM (inactive) | EC50 [19]: > 92.5 µM (inactive) | EC50 [6]: 2.11 µM (active) | EC50 [20]: 86.4 µM (inactive)

N=c1c2c(n(Cc3ccc(Br)cc3)c3c1CCC3)CCCC2
IC50 [21]: > 80 µM (inactive) | EC50 [22]: > 60 µM (inconclusive) | AC50 [23]: 2.64 µM (active) | IC50 [24]: 24.6 µM (inactive) | EC50 [25]: 0.26 µM (active)

CC(C)CN1C[C@@H]2C(CNC(=O)c3cc(Cl)cc(Cl)c3)[C@@H]2C1 (stereo partly specified)
EC50 [26]: 10 µM (active)

COc1ccc(C(=O)C2CCCN(CCc3ccccc3)C2)cc1OC (stereo unspecified)
EC50 [27]: 0.0558 µM (active)

Cc1ccc([N+](=O)[O-])cc1N1C(=O)CS/C1=N\NC(=O)c1cccnc1
AC50 [28]: > 35 µM (active) | AC50 [29]: 48.7 µM (active) | AC50 [30]: > 35 µM (active)
